According to publication PMC12207370, “Macrocyclic Peptide Probes for Immunomodulatory Protein CD59: Potent Modulators of Bacterial Toxin Activity and Antibody‐Dependent Cytotoxicity” (Angewandte Chemie (International Ed. in English), 2025):
Numbered stars: 1 amine (or outer) side, 2 acyl side, 3 side chain; on linkers, the order of the positions; unused ones are H or OH. Bridge positions count the residues as written; N and C are the ends. Square brackets hold non-standard residues; d marks the D form. Peptide text beside a SMILES is read from it. I, II: the chains in the order shown. * marks the point of attachment. X1 = CCCCCCCCCCCCCCCCCOCCOCCOCCOCCOCCOCCOCCOCCOCCOCCOCCOCCOCCC(=O)*; CO(CH2CH2O)5CH2CH2CO = O=C(CCOCCOCCOCCOCCOCCC(=O)[*:2])[*:1]

Assays:
[1] = test system: antibody-sensitized human erythrocytes; test: Enhancement of CDC lysis assay (complement dependent cytotoxicity) in antibody-sensitized erythrocytes; type: cell-based
Protocol: Figure 5 CP‐06 and optimized analogues control CD59 activity in cellular assays. a) ILY lysis assay. SK‐BR‐3 cells were treated with CP‐06 (n = 4) or CP‐06[W3A] (n = 2), then with Sytox green dye and ILY ([…]). The plate was imaged immediately with the IncuCyte S3 Live Cell Analysis System and then every hour up to 14 h. The linear phase of lysis was taken from each well, and linear regression was performed to extract individual slope values, which were then normalized to maximum lysis rate (Sytox and ILY) vs. 0% lysis (Sytox only) within each plate. […] Human erythrocytes were sensitized with 1% w/v anti‐human erythrocyte Ab with 5% v/v human serum in the presence of a serial dilution of CP‐06C18 (black bars) or CP‐06scrmb‐C18 (red bars) Percent lysis enhancement was calculated by normalization to 0% enhancement (buffer well) and plotted as the mean of three biological replicates ± SEM. […]
Enhancement of CDC lysis assay: A 50% (v/v) erythrocyte stock suspension was prepared as described above. […] The following controls were included: (1) a positive control which contained Tween-20 (Cf = 1%), (2) a negative control well that contained PBS, and (3) a vehicle only well that contained PBS without erythrocytes to subtract the absorbance of the vehicle. […]

SK-BR-3 cells = test: ILY lysis assay (Sytox green, IncuCyte) in SK-BR-3 cells; type: cell-based, human
Protocol: Figure 5 CP‐06 and optimized analogues control CD59 activity in cellular assays. a) ILY lysis assay. SK‐BR‐3 cells were treated with CP‐06 (n = 4) or CP‐06[W3A] (n = 2), then with Sytox green dye and ILY ([…]). The plate was imaged immediately with the IncuCyte S3 Live Cell Analysis System and then every hour up to 14 h. The linear phase of lysis was taken from each well, and linear regression was performed to extract individual slope values, which were then normalized to maximum lysis rate (Sytox and ILY) vs. 0% lysis (Sytox only) within each plate. […] Human erythrocytes were sensitized with 1% w/v anti‐human erythrocyte Ab with 5% v/v human serum in the presence of a serial dilution of CP‐06C18 (black bars) or CP‐06scrmb‐C18 (red bars) Percent lysis enhancement was calculated by normalization to 0% enhancement (buffer well) and plotted as the mean of three biological replicates ± SEM.
Determination of optimal ILY concentration: 20,000 SK-BR-3 cells were seeded in a 96-well plate (Grenier, 655180) 24 h before treatment. […] Any bubbles were removed by a de-bubbler and the plate was immediately transferred to IncuCyte® S3 Live Cell Analysis System where each well was imaged 4 times at 10 × magnification with phase contrast and green fluorescence (λex 440–480 nm, λem = 504–544 nm) every hour for 24 h. […]

[2] = Solubility and aggregation behaviour of hit peptides (stated in words); type: physicochemical
CD59 = target: T1, CD59 (Homo sapiens, UniProt P13987); test: SPR (Biacore S200) binding to immobilised biotinylated CD59; conditions: SPR, immobilized CD59
T1 construct: Recombinant soluble human CD59 with an additional C-terminal cysteine residue
T1 sequence (P13987 26-102 limits assumed): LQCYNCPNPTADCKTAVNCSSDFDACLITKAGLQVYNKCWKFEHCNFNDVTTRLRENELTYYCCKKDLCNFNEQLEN
Source text: To identify which of these peptides bound CD59 most tightly, we used a Biacore S200 surface plasmon resonance (SPR) platform to investigate CD59 affinity (Figure 2b), using a known protein binding partner of CD59 (rILYd4) as a benchmark. Four 13‐mer macrocyclic peptides and one 14‐mer macrocyclic peptide were identified with a dissociation constant (K D) lower than that of rILYd4. Considering their fourfold lower molecular weight, these peptides bind with up to 19‐fold greater efficiency compared to rILYd4 (Figure 2b).
Equipment: SPR analysis was performed on a Cytiva Biacore S200. All buffers were prepared using ultra-pure water from a Millipore Elix Q-Gard purification system. Solutions and buffers were filtered with a 0.22 μm filter and degassed prior to use. The assays were performed on Series S streptavidin (SA) sensor chip (Cytiva). PBS-P+ buffer 10X (0.2 M phosphate buffer with 27 mM KCl, 1.37 M NaCl and 0.5% Surfactant P20 (Tween 20)) was used for the preparation of the assay running buffer (PBS-P+ 1X).
Immobilisation of CD59-biotin: Biotinylated CD59 was immobilised on the surface of a SA chip by non-covalent capture (biotin streptavidin interaction) as per the manufacturer’s instructions. The system was initially primed with running buffer and normalised using BIAnormalizing solution (70% (w/w) glycerol) (Cytiva). Before immobilising the protein, the surface was conditioned with three consecutive one-minute injections of 1 M NaCl in 50 mM NaOH. Biotinylated CD59 (0.5 µg/mL in running buffer) was flowed over the protein (active) channel for different contact times to achieve different immobilisation levels (600–1200 RU). After each protein injection, the needle and injection loop were washed using 50% isopropanol in 1 M NaCl and 50 mM NaOH. A reference channel was prepared by similar treatment; however, running buffer alone rather than CD59-biotin in running buffer was flowed over the chip the same way.
Interaction analysis: Multicycle kinetic and affinity approach was used for the analysis of peptides interactions with CD59. Two-fold serial dilutions of each peptide were prepared in running buffer and were flowed over both the ligand and reference channel using a flow rate (30 μL/min) at 25 °C. A zero concentration was added to each analyte series and three cycles of buffer were run between analytes to restore the baseline. The obtained sensorgrams were analysed using the embedded Biacore S200 Evaluation software. The data were normalised by subtracting RU values of the reference channel and zero concentration of the analyte series. Kinetic rate constants (kon and koff) were determined by fitting the normalised data using the built-in Kinetic analysis model (non-linear regression with a 1:1 Langmuir binding model), KD values were then calculated from the two rate constants ([…]). The KD values were determined again by fitting the normalised data using the built-in Affinity analysis model (1:1 Langmuir binding model).

## CCCCCCCCCCCCCCCCCOCCOCCOCCOCCOCCOCCOCCOCCOCCOCCOCCOCCOCCC(=O)NCCCC[C@H](NC(=O)CNC(=O)[C@@H]1CSCC(=O)N[C@H](Cc2ccc(O)cc2)C(=O)N[C@@H](CO)C(=O)N[C@@H](Cc2c[nH]c3ccccc23)C(=O)N[C@@H]([C@@H](C)O)C(=O)N[C@@H](Cc2c[nH]c3ccccc23)C(=O)NCC(=O)N[C@@H](CC(N)=O)C(=O)N[C@@H](CCCNC(=N)N)C(=O)N[C@@H](CO)C(=O)N[C@@H](CO)C(=O)N[C@@H](C(C)C)C(=O)N[C@@H](CCCNC(=N)N)C(=O)NCC(=O)N1)C(=O)NCC(N)=O [CP-06C18] ({CH2CO}-[dY]SWTWGNRSSVRGCGK(X1)G-NH2; thioether N-14)
[1]; anti-RBC antibody, 5% human serum
  enhancement of mAb-mediated CDC (in words): enhanced mAb‐mediated CDC in a dose‐dependent manner
[1]; no anti-RBC antibody, Figure S4
  lysis in the absence of anti-RBC (in words): Neither peptide caused lysis above background

## CC(C)[C@@H]1NC(=O)[C@H](CO)NC(=O)[C@H](CO)NC(=O)[C@H](CCCNC(=N)N)NC(=O)[C@H](CC(N)=O)NC(=O)CNC(=O)[C@H](Cc2c[nH]c3ccccc23)NC(=O)[C@H]([C@@H](C)O)NC(=O)[C@H](Cc2c[nH]c3ccccc23)NC(=O)[C@H](CO)NC(=O)[C@@H](Cc2ccc(O)cc2)NC(=O)CSC[C@@H](C(=O)NCC(=O)N[C@@H](CCCCNC(=O)CCOCCOCCOCCOCCOCCC(=O)NCCCC[C@H](NC(=O)CNC(=O)[C@@H]2CSCC(=O)N[C@H](Cc3ccc(O)cc3)C(=O)N[C@@H](CO)C(=O)N[C@@H](Cc3c[nH]c4ccccc34)C(=O)N[C@@H]([C@@H](C)O)C(=O)N[C@@H](Cc3c[nH]c4ccccc34)C(=O)NCC(=O)N[C@@H](CC(N)=O)C(=O)N[C@@H](CCCNC(=N)N)C(=O)N[C@@H](CO)C(=O)N[C@@H](CO)C(=O)N[C@@H](C(C)C)C(=O)N[C@@H](CCCNC(=N)N)C(=O)NCC(=O)N2)C(=O)NCC(N)=O)C(=O)NCC(N)=O)NC(=O)CNC(=O)[C@H](CCCNC(=N)N)NC1=O [CP-06dimer] (I: {CH2CO}-[dY]SWTWGNRSSVRGCGKG-NH2 / II: {CH2CO}-[dY]SWTWGNRSSVRGCGKG-NH2; linker I:16-II:16 via CO(CH2CH2O)5CH2CH2CO; thioether I:N-I:14, II:N-II:14)
SK-BR-3 cells
  inhibition of ILY lysis (in words): completely inhibits ILY lysis

## CC(C)[C@@H]1NC(=O)[C@H](CO)NC(=O)[C@H](CO)NC(=O)[C@H](CCCNC(=N)N)NC(=O)[C@H](CC(N)=O)NC(=O)CNC(=O)[C@H](Cc2c[nH]c3ccccc23)NC(=O)[C@H]([C@@H](C)O)NC(=O)[C@H](Cc2c[nH]c3ccccc23)NC(=O)[C@H](CO)NC(=O)[C@@H](Cc2ccc(O)cc2)NC(=O)CSC[C@@H](C(N)=O)NC(=O)CNC(=O)[C@H](CCCNC(=N)N)NC1=O [CP-06] (HELM PEPTIDE1{[O=C(C[*:3])[*:2]].[dY].S.W.T.W.G.N.R.S.S.V.R.G.C.[am]}$PEPTIDE1,PEPTIDE1,1:R3-15:R3$$$V2.0)
[2]
  solubility (in words): good solubility
CD59; read-out: Koff (dissociation rate constant)
  koff: 0.0204 s⁻¹
CD59; read-out: Kon (association rate constant)
  kon: 1.86e+06 M⁻¹ s⁻¹
